In one series the target is hC3 (Homo sapiens, UniProt P01024). The series is described as follows: Activity measurements of inhibitory activity against hC3 (method not described). The settings on record: relative to W4A9.
A short description of series [1]: Experimental solubility of analogs (method not described). Type of series: physicochemical. The settings on record: aqueous environment.
The test system of the next series is complement system. The series is described as follows: Preliminary ELISA-based complement system inhibition assays, human serum. The class given is biochemical. The settings on record: preliminary data. An excerpt:
For some of the peptides studied here, W1, W13, R1, and S-1S0, there is experimental evidence for inhibitory activity against hC3. […] The structural rationale was that the positively charged backbone amino group was disrupting the hydrophobic cluster at the termini (spanning residues 11-C2-V3-V4/C12/T13 of native compstatin), which was deemed necessary for binding and activity before the availability of the structure of the C3c-W4A9 complex, and that upon removal of the positive charge by acetylation the hydrophobic cluster was fortified and contributed to the 3-fold increase in activity. […] The peptide with the diserine extension is expected to be active, as the diserine was present at the N-terminus of the original 32-amino acid peptide that was identified in the phage-display and a subsequent study.

Series [2] deals with complement alternative pathway (AP). Kind of series: C3b ELISA (inhibition of C3b formation). Type of series: biochemical, human. The following applies: table 13; read-out: C3b ELISA IC50. The method, then:
(§1) Inhibition of the complement alternative pathway (AP) by compstatin family peptides was assayed by ELISA. Peptides were dissolved in phosphate buffered saline (PBS, 150 mM). Initial peptide concentrations were calculated using the Beer-Lambert Law with an extinction coefficient of 5,500 (1/M·cm) for Trp and 5,470 (1/M·cm) for methylated-Trp present in the sequence, at 280 nm. Nunc Maxisorp 96-well plates were coated with 1 μg lipopolysaccharides (LPS) from Salmonella enteriditis for ˜16 h at room temperature. Plates were washed three times with PBS/0.05% Tween-20 (PBS-T) between each step. Plates were blocked with 4% bovine serum albumin (BSA) in PBS-T for 1 h at 37° C. Serial peptide dilutions were performed in 96-well plates, using gelatin veronal-buffered saline with 5 mM MgCl2 and 10 mM EGTA (GVBS-MgEGTA). Normal human serum (Complement Technology Inc., Tyler, Tex., USA) was diluted in GVBS-MgEGTA and mixed with compstatin serial dilutions to a final concentration of 30%. Serum diluted in GVBS-MgEGTA and GVBS (containing 20 mM EDTA) were used as positive and negative controls for complement activation, respectively. Dilutions were preincubated for 15 minutes at room temperature, transferred to ELISA plates, and incubated for 1 h at 37° C. Generation of C3b and C5b-9 were assayed using horseradish peroxidase (HRP)-conjugated anti-C3 (MP Biomedicals, Solon, Ohio, USA) and anti-05b-9 aEll (Abcam, Cambridge, Mass., USA), respectively. Plates were washed and incubated with either anti-C3-HRP (1:5000 in 1% BSA/PBS-T) or anti-05b-9 (1:1000 in 1% BSA/PBS-T) for 1 h at 37° C. For C5b-9 detection, primary antibody incubation was followed by incubation with anti-mouse-HRP (BioRad, Hercules, Calif., USA) for 1 h at 37° C. (1:5000 in 1% BSA/PBS-T). Bound C3b and C5b-9 were quantified using a 3,3′,5,5′-tetramethylbenzidine substrate solution containing urea hydrogen peroxide in 0.11 M sodium acetate buffer, followed by a 1 N H2SO4 acid stop. Plates were measured spectrophotometrically at 450 nm. Percent inhibition of C3b and C5b-9 deposition was plotted against peptide concentration and the data was fitted to a logistic dose response curve with Prism software (GraphPad, San Diego, Calif., USA) to determine IC50 values.
(§2) In all assays, MgEGTA was used to chelate Ca′ ions required for classical/lectin pathway complement activation, while providing Mg′ necessary for AP activation. ELISAs allow for direct detection of C3b and C5b-9 formed during AP activation, while erythrocyte lysis assays provide a functional assessment of AP-mediated hemolysis in serum. […] Table 9 summarizes the IC50 values derived from the three different assays. […] The relative potencies of the peptides, based on the measured ICH values, are consistent across all three assays (Peptide III˜Peptide VI˜Peptide IX>Peptide I>Parent). Based on the assay conditions used in this study, peptides inhibited C5b-9 formation with moderately better efficacy than formation of C3b, while slightly higher concentrations were necessary to inhibit AP-mediated hemolysis.

Series [3] shares this test system. Kind of series: C5b-9 ELISA (inhibition of C5b-9 terminal complex formation). Type of series: biochemical, human. The following applies: table 13; read-out: C5b-9 ELISA IC50. As for the experimental part:
as §1, §2

For series [4] the test system is unchanged. Kind of series: Hemolytic assay (rabbit erythrocyte lysis in human serum). The class given is cell-based. The following applies: table 13; read-out: Lysis IC50. As for the experimental part: Inhibition of complement was also measured via lysis of erythrocytes. Rabbit erythrocytes (Complement Technology Inc., Tyler, Tex., USA) were washed in PBS and resuspended in veronal-buffered saline with 5 mM MgCl2 and 10 mM EGTA (VBS-MgEGTA). Peptide and serum dilutions were prepared as described above, and 1×10^7 erythrocytes were added to each serum/peptide mixture. Erythrocytes diluted in sterile deionized water and in VBS-MgEGTA were used as positive and negative controls for lysis, respectively. Plates were incubated for 20 minutes at 37° C., and centrifuged at 2500×g for 10 minutes.
In all assays, MgEGTA was used to chelate Ca′ ions required for classical/lectin pathway complement activation, while providing Mg′ necessary for AP activation. ELISAs allow for direct detection of C3b and C5b-9 formed during AP activation, while erythrocyte lysis assays provide a functional assessment of AP-mediated hemolysis in serum.

Structures are written as SMILES. Entries after “also recorded” stand apart in the source; their conditions may differ. Bridge positions count the residues as written; N and C are the ends. Peptide text beside a SMILES is read from it.

Sequence of hC3 (P01024 23-1663): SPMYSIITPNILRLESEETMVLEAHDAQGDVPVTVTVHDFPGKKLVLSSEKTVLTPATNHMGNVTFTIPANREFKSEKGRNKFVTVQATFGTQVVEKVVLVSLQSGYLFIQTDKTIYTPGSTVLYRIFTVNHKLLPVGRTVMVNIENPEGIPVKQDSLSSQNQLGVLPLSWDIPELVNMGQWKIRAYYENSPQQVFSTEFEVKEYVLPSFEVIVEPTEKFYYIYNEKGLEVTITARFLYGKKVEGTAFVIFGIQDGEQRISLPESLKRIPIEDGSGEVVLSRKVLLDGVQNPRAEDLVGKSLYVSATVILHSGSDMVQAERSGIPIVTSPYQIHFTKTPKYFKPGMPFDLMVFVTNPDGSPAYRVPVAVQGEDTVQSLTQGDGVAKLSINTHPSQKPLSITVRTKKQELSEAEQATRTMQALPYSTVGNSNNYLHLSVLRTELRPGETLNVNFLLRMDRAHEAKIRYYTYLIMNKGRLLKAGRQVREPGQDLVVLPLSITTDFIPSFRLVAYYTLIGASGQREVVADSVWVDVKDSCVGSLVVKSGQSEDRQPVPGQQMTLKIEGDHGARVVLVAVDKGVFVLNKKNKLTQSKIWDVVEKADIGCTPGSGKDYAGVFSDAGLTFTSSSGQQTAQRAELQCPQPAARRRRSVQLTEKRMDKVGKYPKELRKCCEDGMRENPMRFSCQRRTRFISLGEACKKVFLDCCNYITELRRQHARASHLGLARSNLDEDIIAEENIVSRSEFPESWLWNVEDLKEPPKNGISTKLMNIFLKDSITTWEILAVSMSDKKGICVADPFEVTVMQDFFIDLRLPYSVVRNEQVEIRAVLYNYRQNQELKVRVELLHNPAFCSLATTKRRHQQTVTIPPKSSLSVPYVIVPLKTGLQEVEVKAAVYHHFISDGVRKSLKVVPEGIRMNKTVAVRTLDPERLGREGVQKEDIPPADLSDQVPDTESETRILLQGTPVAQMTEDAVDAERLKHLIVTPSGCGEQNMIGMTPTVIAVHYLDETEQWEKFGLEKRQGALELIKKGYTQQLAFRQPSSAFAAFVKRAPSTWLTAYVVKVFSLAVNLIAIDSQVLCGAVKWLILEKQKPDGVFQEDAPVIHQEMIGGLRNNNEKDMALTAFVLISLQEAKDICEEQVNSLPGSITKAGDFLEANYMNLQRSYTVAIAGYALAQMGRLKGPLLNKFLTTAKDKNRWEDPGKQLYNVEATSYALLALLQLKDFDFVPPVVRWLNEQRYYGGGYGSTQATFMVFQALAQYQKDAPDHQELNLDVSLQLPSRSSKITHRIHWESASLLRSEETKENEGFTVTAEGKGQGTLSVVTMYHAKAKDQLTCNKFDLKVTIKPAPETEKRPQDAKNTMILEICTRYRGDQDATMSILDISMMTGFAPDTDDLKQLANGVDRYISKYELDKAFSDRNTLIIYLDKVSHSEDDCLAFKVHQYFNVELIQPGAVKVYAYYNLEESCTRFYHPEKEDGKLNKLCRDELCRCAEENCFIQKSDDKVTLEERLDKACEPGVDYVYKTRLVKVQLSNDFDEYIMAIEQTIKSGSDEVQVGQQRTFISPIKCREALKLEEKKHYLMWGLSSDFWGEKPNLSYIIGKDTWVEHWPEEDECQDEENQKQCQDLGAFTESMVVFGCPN

As for `CC(=O)N[C@@H](Cc1c[nH]c2ccccc12)C(=O)N[C@H]1CSSC[C@@H](C(=O)N[C@@H](Cc2c[nH]c3ccccc23)C(N)=O)NC(=O)[C@H](CCCNC(=N)N)NC(=O)[C@H](Cc2c[nH]cn2)NC(=O)[C@H](C)NC(=O)CNC(=O)[C@H](Cc2c[nH]c3ccccc23)NC(=O)[C@H](CC(=O)O)NC(=O)[C@H](CCC(N)=O)NC(=O)[C@H](Cc2c[nH]c3ccccc23)NC(=O)[C@H](C(C)C)NC1=O` [Peptide W1W13] (Ac-WCVWQDWGAHRCW-NH2; disulfide 2-12), on hC3, the “inhibitory activity against hC3 (in words)” value is given as “slightly reduced activities”. For the same compound, the “solubility (in words)” value in series [1] was “slightly reduced activities and solubilities”.

In the case of `CC[C@H](C)[C@H](NC(=O)[C@H](CO)NC(=O)[C@H](CO)NC(C)=O)C(=O)N[C@H]1CSSC[C@@H](C(=O)N[C@H](C(N)=O)[C@@H](C)O)NC(=O)[C@H](CCCNC(=N)N)NC(=O)[C@H](Cc2c[nH]cn2)NC(=O)[C@H](C)NC(=O)CNC(=O)[C@H](Cc2c[nH]c3ccccc23)NC(=O)[C@H](CC(=O)O)NC(=O)[C@H](CCC(N)=O)NC(=O)[C@H](Cc2c[nH]c3ccccc23)NC(=O)[C@H](C(C)C)NC1=O` [Peptide IV, Ac-SS-ICV WQDWGA HRCT-NH2], the “inhibitory activity in human serum (in words)” value in the series with complement system was “higher than those of native compstatin and slightly lower than those of the W4A9 analog”.

With `CC[C@H](C)[C@H](NC(C)=O)C(=O)N[C@H]1CSSC[C@@H](C(=O)N[C@@H](Cc2c[nH]c3ccccc23)C(N)=O)NC(=O)[C@H](CCCNC(=N)N)NC(=O)[C@H](Cc2c[nH]cn2)NC(=O)[C@H](C)NC(=O)CNC(=O)[C@H](Cc2c[nH]c3ccccc23)NC(=O)[C@H](CC(=O)O)NC(=O)[C@H](CCC(N)=O)NC(=O)[C@H](Cc2c[nH]c3ccccc23)NC(=O)[C@H](C(C)C)NC1=O` [Peptide W13] (Ac-ICVWQDWGAHRCW-NH2; disulfide 2-12), on hC3, the “inhibitory activity against hC3 (in words)” value is recorded as “slightly reduced activities”. For the same compound, the “solubility (in words)” value in series [1] is “slightly reduced activities and solubilities; also recorded: solubility problems in aqueous environment”.

As for `CC(=O)N[C@@H](CC(N)=O)C(=O)N[C@@H](CC(N)=O)C(=O)N[C@@H](CC(C)C)C(=O)N[C@H]1CSSC[C@@H](C(=O)N[C@H](C(N)=O)[C@@H](C)O)NC(=O)[C@H](CCCNC(=N)N)NC(=O)[C@H](Cc2c[nH]cn2)NC(=O)[C@H](C)NC(=O)CNC(=O)[C@H](Cc2c[nH]c3ccccc23)NC(=O)[C@H](CC(=O)O)NC(=O)[C@H](CCC(N)=O)NC(=O)[C@H](Cc2c[nH]c3ccccc23)NC(=O)[C@H](C(C)C)NC1=O` [Peptide 3.2, Ac-NN-LCV WQDWGA HRCT-NH2] (Ac-NNLCVWQDWGAHRCT-NH2; disulfide 4-14), the figures for the IC50 in series [2], in series [3] and in series [4] were 600 ± 100 nM, 500 ± 100 nM and 300 ± 100 nM, respectively.

In the case of `CC[C@H](C)[C@H](NC(=O)[C@H](CCCNC(=N)N)NC(=O)[C@H](CCC(=O)O)NC(C)=O)C(=O)N[C@H]1CSSC[C@@H](C(=O)N[C@H](C(N)=O)[C@@H](C)O)NC(=O)[C@H](CCCNC(=N)N)NC(=O)[C@H](Cc2c[nH]cn2)NC(=O)[C@H](C)NC(=O)CNC(=O)[C@H](Cc2c[nH]c3ccccc23)NC(=O)[C@H](CC(=O)O)NC(=O)[C@H](CCC(N)=O)NC(=O)[C@H](Cc2c[nH]c3ccccc23)NC(=O)[C@H](C(C)C)NC1=O` [Peptide 3.1, Ac-ER-ICV WQDWGA HRCT-NH2], the values for the IC50 in series [2], in series [3] and in series [4] were 900 ± 100 nM, 500 ± 100 nM and 900 ± 200 nM, respectively.

As to `CC(=O)N[C@@H](Cc1c[nH]c2ccccc12)C(=O)N[C@H]1CSSC[C@@H](C(=O)N[C@H](C(N)=O)[C@@H](C)O)NC(=O)[C@H](CCCNC(=N)N)NC(=O)[C@H](Cc2c[nH]cn2)NC(=O)[C@H](C)NC(=O)CNC(=O)[C@H](Cc2c[nH]c3ccccc23)NC(=O)[C@H](CC(=O)O)NC(=O)[C@H](CCC(N)=O)NC(=O)[C@H](Cc2c[nH]c3ccccc23)NC(=O)[C@H](C(C)C)NC1=O` [Peptide W1] (Ac-WCVWQDWGAHRCT-NH2; disulfide 2-12), at hC3, the “inhibitory activity against hC3 (in words)” value is recorded as “near-W4A9 inhibitory activity”. For the same compound, the “solubility (in words)” value in series [1] is recorded as “good solubility”.

`CC[C@H](C)[C@H](NC(=O)[C@H](CO)NC(=O)[C@H](CCCNC(=N)N)NC(C)=O)C(=O)N[C@H]1CSSC[C@@H](C(=O)N[C@H](C(N)=O)[C@@H](C)O)NC(=O)[C@H](CCCNC(=N)N)NC(=O)[C@H](Cc2c[nH]cn2)NC(=O)[C@H](C)NC(=O)CNC(=O)[C@H](Cc2c[nH]c3ccccc23)NC(=O)[C@H](CC(=O)O)NC(=O)[C@H](CCC(N)=O)NC(=O)[C@H](Cc2c[nH]c3ccccc23)NC(=O)[C@H](C(C)C)NC1=O` [Peptide 3.4, Ac-RS-ICV WQDWGA HRCT-NH2]: the results for the IC50 in series [2], in series [3] and in series [4] were 700 ± 100 nM, 600 ± 100 nM and 300 ± 100 nM, respectively.

In the case of `CC(=O)N[C@@H](CC(N)=O)C(=O)N[C@@H](CCCNC(=N)N)C(=O)N[C@@H](CC(C)C)C(=O)N[C@H]1CSSC[C@@H](C(=O)N[C@H](C(N)=O)[C@@H](C)O)NC(=O)[C@H](CCCNC(=N)N)NC(=O)[C@H](Cc2c[nH]cn2)NC(=O)[C@H](C)NC(=O)CNC(=O)[C@H](Cc2c[nH]c3ccccc23)NC(=O)[C@H](CC(=O)O)NC(=O)[C@H](CCC(N)=O)NC(=O)[C@H](Cc2c[nH]c3ccccc23)NC(=O)[C@H](C(C)C)NC1=O` [Peptide 3.3, Ac-NR-LCV WQDWGA HRCT-NH2] (Ac-NRLCVWQDWGAHRCT-NH2; disulfide 4-14), the IC50 in series [2] came to 600 ± 100 nM; in series [3], 500 ± 100 nM; in series [4] it was 300 ± 100 nM.

Values taken from patent US9512180B2, “Compstatin analogs” (THE REGENTS OF THE UNIVERSITY OF CALIFORNIA, priority 2012, dated 2016).
